Data from US11767313B2, “Compounds as nuclear transport modulators and uses thereof” (XWPHARMA LTD., priority 2018, dated 2023).
pEC50: −log10 of the molar value.

Legend:
[1] = mouse, in vivo, po
[2] = Pharmacokinetic profile in plasma; assay type: in vivo; settings: mouse, iv, I. V., mice
[3] = tested on: U87MG cells; test: Capase-Glo 317 apoptosis assay; assay type: cell-based; settings: Homo sapiens, U-87 MG, 72 hours
Method: A Capase-Glo® 317 assay was used to determine the apoptosis activity of test compounds in U87MG cells.
Compounds were dissolved in 25 mM DMSO stock solution and serially diluted. DMSO was used as the vehicle control (high control, HC) and culture medium was used as the background (low control LC). The test compounds were applied to plates and spun at 25° C. at 1,000 RPM for 1 min and shaken on a plate shaker for 2 min. Samples (80 nL) of the compounds from the plates were transferred to 384-well cell culture plates using a liquid handler.
Cells were harvested and the cell numbers counted. 40 μL of the cell suspension with the adjusted density was added to 384-well cell culture pates. The final cell density is 1,000 cells/well. Cell culture medium only was used in the low control (LC) samples. The plates were covered with a lid and placed in a 5% CO2 incur at 37° C. for 72 hours.
After incubating for 72 hours, the plates were removed from the incubator and equilibrated at 25° C. for 15 minutes. CellTiter Glo® regen was incubated at 37° C. before the experiments. 40 μL of Capase-Glo® 317 was added into each well to be detected at a 1:1 ratio to culture medium. The plates were then placed at 25° C. for 30 min and read using an EnSpire® Plate Reader.
The % activity remaining was determined using the following formula: % Remaining Activity=[…]×(Lumsample−LumLC)/(LumHC−LUM LC), where HC is obtained from cells treated with 0.1% DMSO only, LC is obtained from culture medium only.

[4] = tested on: U87MG-luc tumor; test: U87MG-luc human glioblastoma orthotopic model; assay type: in vivo; settings: 20 mg/kg orally, 3 times/week, 4 weeks
Text: Animals: Female BALB/c Nude mice (Supplied by Beijing AniKeeper Biotech Co., Ltd., 6-8 weeks old/18-22 g) were used. General procedures for animal care and using were in accordance with the standard operating procedures (SOPs) of Pharmaron, Inc.
Grouping and Treatments: Grouping and treatment were started on Day 7 post tumor cells inoculation. Mice were imaged to monitor the tumor growth, then mice were randomly assigned to respective groups using a computer-generated randomization procedure. All test articles were administered orally 20 mg/kg with 3 times/week, for 4 weeks post tumor implantations (n=12 per group).
Cell Culture: The Human glioblastoma U87-luc tumor cell line was maintained in vitro as monolayer culture and used for tumor inoculation
Tumor Inoculation and Randomization: 2.5×10^5 luciferase-expressing U87MG-luc tumor cells suspended in 2 μL MEM medium were injected into the right forebrain by positioning the needle at AP: 2.0 mm, ML: 0.5-1.0 mm, DV: 3.0 mm from bregma. The injection was slowly proceeding over a one-minute period. Upon completing injection, the needle was retained for another minute. Measurement Parameters: Tumor growth (monitored by image analysis), body weight and survival days were recorded.
Termination Criterion: Individual animal was humanely sacrificed by carbon dioxide when body weight loss >20% and animals could not get to adequate food or water.
Statistical Analysis: Data was recorded as means±standard error of the mean for all measurement parameters as study designed. All statistical tests were conducted by SPSS 17.0 statistical software, and the level of significance is set at p<0.05.

[5] = molecular target: T1, CRM1 (Homo sapiens, UniProt O14980); test: PD effects by IHC in U87MG-luc orthotopic model, CRM1; assay type: in vivo, mice; settings: orally three times a week for 2 weeks; vs vehicle control
T1 construct: from tissue; host or cells: U87MG-luc orthotopic xenograft tumours in mouse brain
T1 sequence (O14980 whole entry): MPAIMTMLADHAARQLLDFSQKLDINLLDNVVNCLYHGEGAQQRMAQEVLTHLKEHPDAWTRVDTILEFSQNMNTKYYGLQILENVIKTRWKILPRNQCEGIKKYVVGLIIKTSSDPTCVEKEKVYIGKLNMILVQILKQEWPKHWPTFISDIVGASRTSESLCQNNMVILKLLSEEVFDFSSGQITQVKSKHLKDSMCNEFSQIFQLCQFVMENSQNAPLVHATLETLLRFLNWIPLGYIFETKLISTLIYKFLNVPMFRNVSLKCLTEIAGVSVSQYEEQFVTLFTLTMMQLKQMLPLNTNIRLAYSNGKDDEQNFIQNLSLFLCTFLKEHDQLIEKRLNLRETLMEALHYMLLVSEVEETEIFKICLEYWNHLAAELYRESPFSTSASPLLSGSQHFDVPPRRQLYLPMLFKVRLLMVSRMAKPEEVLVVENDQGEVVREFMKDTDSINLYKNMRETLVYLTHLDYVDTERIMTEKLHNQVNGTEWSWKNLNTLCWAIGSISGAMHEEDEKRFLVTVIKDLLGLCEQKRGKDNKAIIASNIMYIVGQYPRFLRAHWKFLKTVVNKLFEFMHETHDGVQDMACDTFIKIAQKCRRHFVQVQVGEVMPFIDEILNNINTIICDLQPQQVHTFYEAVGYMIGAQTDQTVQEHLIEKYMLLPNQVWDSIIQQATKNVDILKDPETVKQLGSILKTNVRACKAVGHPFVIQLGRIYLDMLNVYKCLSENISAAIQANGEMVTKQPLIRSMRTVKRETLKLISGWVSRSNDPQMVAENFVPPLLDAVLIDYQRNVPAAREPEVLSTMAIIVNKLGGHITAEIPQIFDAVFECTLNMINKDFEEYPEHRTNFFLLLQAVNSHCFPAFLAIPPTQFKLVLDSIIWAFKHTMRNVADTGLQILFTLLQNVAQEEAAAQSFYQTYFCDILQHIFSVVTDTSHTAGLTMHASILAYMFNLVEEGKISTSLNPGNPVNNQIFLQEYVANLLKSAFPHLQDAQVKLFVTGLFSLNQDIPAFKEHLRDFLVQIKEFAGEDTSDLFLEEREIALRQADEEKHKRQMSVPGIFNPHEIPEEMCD
Method: Based on the bioluminescent signal of tumor, mice were randomly assigned to respective groups using a computer-generated randomization procedure, which included vehicle and compound III-treated groups, respectively, with 5 animals per group. Compound III (20 mg/kg) was given orally 3 times a week (on Day 1, 3, 5) for 2 weeks. Animals for IHC study were euthanized at 6 hours after the last dose and perfused with normal saline followed by fixation with 4% paraformaldehyde. Entire brains containing tumors were collected and kept in fixative for 24 hours before proceeding for paraffin block.

SMILES: O=C(/C=C\n1cnc(-c2cc(C(F)(F)F)cc(S(F)(F)(F)(F)F)c2)n1)NNc1cnccn1 [Compound I, (Z)-3-(3-(3-(pentafluorosulfanyl)-5-(trifluoromethyl)phenyl)-1H-1,2,4-triazol-1-yl)-N′-(pyrazin-2-yl)acrylohydrazide]
- survival in MTD study [1]: survived
- AUC(0-t) [2]: 1040 ng·h/mL
- C0 [2]: 1010 ng/mL
- clearance [2]: 16 mL/min/kg
- half-life [2]: 1.62 h
- MRT last ([2]; read-out: MRT0-last): 1.56 h
- Vd ([2]; read-out: Vdss): 1.68 L/kg
- pEC50 [3]: 4.80
- Emax ([3]; U87MG): 325%

SMILES: CC(C)(C)C(=O)NNC(=O)/C=C\n1cnc(-c2cc(C(F)(F)F)cc(S(F)(F)(F)(F)F)c2)n1 [Compound III, (Z)-3-(3-(3-(Pentafluorosulfanyl)-5-(trifluoromethyl)phenyl)-1H-1,2,4-triazol-1-yl)-N′-pivaloylacrylohydrazide]
- bodyweight loss (individual animal) [4]: less than 10%
- medium survival time (MST) [4]: 47 days
- tolerability [4]: well tolerated by most animals
- reduction in bioluminescence signal compared with the vehicle control group ([4]; end of treatment period): 99%
- expression of CRM1 in tumors (IHC) [5]: significantly decreased
